According to PMC11726670, “Impact of Linker Composition on VHL PROTAC Cell Permeability” (Journal of Medicinal Chemistry, 2024):
In brackets after ≈: the same amount, converted by molar mass. Like-named read-outs stand apart in the source and are kept apart here.

Assays:
in vitro = test: in vitro
Procedure: Stock solutions of the controls and of 1–9 were prepared in DMSO at a concentration of 10 mM, then they were further diluted with PBS (pH 7.4) to a final concentration of 10 μM. Five μL of a lecithin/dodecane mixture and 300 μL of PBS (pH 7.4) solution were pipetted into each acceptor plate well, followed by addition of 300 μL of the solutions of the controls or 1–9 to each well of the donor plate. The acceptor plate was placed into the donor plate followed by incubation at 25 °C, 60 rpm for 16 h.[31] After incubation, aliquots of 50 μL from each well of the acceptor and donor plates are transferred into a 96-well plate and 200 μL of acetonitrile was added to each well. Samples were centrifuged for 20 min and compound concentrations were determined by LC/MS/MS (LC system: Shimadzu; Triple Quad).

[1] = chromatographic Log D at pH 7.5; type: physicochemical
Excerpt: The chromatographic lipophilicities of the nine PROTACs were therefore determined to understand to what extent the cell permeability differences may originate from lipophilicity.

physchem = conditions: PBS, pH 6.5, aqueous buffer, kinetic from dmso stock
Excerpt: Before determining the cell permeability of PROTACs 1–8 we assessed their aqueous solubility.

[2] = pKa determined by photometry; type: physicochemical
Procedure: Both compounds were therefore treated as being mainly uncharged in the subsequent analyses, and the uncharged form of 7 was used in the NMR studies of its conformational ensemble in chloroform.
The pKa of 7 was determined by photometry as reported previously.[57]

VHL = VHL (Homo sapiens, UniProt P40337); test: cell-based VHL binding assay (NanoBRET, live mode); conditions: classified by in cellulo/in vitro ratio
Sequence of VHL (P40337 whole entry): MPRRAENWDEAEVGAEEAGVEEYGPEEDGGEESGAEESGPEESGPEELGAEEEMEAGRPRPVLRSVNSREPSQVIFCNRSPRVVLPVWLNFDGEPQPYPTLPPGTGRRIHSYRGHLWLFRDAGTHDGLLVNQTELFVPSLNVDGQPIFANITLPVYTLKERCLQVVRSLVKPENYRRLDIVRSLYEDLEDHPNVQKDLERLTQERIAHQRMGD
Procedure: IC50 values were calculated using a four-parameter fit, with a commercial software package (Genedata Screener, Switzerland).

ERK5 = system: ERK5; set-up: method as in PMID 33488971; conditions: previously reported PROTAC; read-out: IC50 for binding to ERK5; cited from earlier work
[3] = PBS at pH 6.5; cited from earlier work
[4] = pH 7.5, chromatographic lipophilicity, pH 7.5, read-out: LogD (pH 7.5)
[5] = pH 7.5, chromatographic, supplement, read-out: LogD, pH 7.50

| SMILES | Papp at 16 h, 10 μM (in vitro; PAMPA, pH 7.4) [×10⁻⁶ cm/s] | chromatographic logD [1, 4] | chromatographic logD [1, 5] | PAMPA, mean (LogPe, cm/s) (in vitro; 16 h, 10 μM) | PAMPA Log[Pe (cm/s)] (in vitro; 16 h, 10 μM, pH 7.4) | solubility (physchem) [µM] | solubility kinetic (physchem) [µM] | higher PAMPA permeability (in vitro) | improvement in PAMPA permeability (in vitro; 16 h, 10 μM) [fold] | uncharged fraction ([2]; at pH 7.4, from determined pKa) [%] | partially charged fraction ([2]; at physiological pH) [%] | pKa ([2]; tertiary amine of linker, photometry) | cell permeability class (in words) (VHL) | IC50 (ERK5) [µM] | kinetic solubility [3] [µM] |
| --- | --- | --- | --- | --- | --- | --- | --- | --- | --- | --- | --- | --- | --- | --- | --- |
| CN(Cc1cnc2nc(N)nc(N)c2n1)c1ccc(C(=O)N[C@@H](CCC(=O)O)C(=O)O)cc1 [Methotrexate, reference compound] | 0.00427 |  |  |  |  |  |  |  |  |  |  |  |  |  |  |
| Cc1ncsc1-c1ccc(CNC(=O)[C@@H]2C[C@@H](O)CN2C(=O)[C@@H](NC(=O)COCc2cn(CCOc3cnc4c(C5CCN(C(=O)c6ccc(OC(F)(F)F)cc6)CC5)ncnc4c3)nn2)C(C)(C)C)cc1 [PROTAC 4, 3-Methyl-N-{[(1-{2-[(4-{1-[4-(trifluoromethoxy)benzoyl]piperidin-4-yl}pyrido[3,2-d]pyrimidin-7-yl)oxy]ethyl}-1H-1,2,3-triazol-4-yl)methoxy]acetyl}-L-valyl-(4R)-4-hydroxy-N-[4-(4-methyl-1,3-thiazol-5-yl)benzyl]-L-prolinamide] |  | 2.7 |  | <-7,94 cm/s | <−7.94 ± 0.20 cm/s | 12.1 (≈ 12.3 µg/mL) | 10 to 20 (≈ 10.1 to 20.3 µg/mL) |  |  |  |  |  |  |  |  |
| Cc1ncsc1-c1ccc(CNC(=O)[C@@H]2C[C@@H](O)CN2C(=O)[C@@H](NC(=O)Cc2ccc(OCCOc3cnc4c(C5CCN(C(=O)c6ccc(OC(F)(F)F)cc6)CC5)ncnc4c3)cc2)C(C)(C)C)cc1 [PROTAC 5, 3-Methyl-N-[(4-{2-[(4-{1-[4-(trifluoromethoxy)benzoyl]piperidin-4-yl}pyrido[3,2-d]pyrimidin-7-yl)oxy]ethoxy}phenyl)acetyl]-L-valyl-(4R)-4-hydroxy-N-[4-(4-methyl-1,3-thiazol-5-yl)benzyl]-L-prolinamide] |  | 3.2 | 3.25 | <-7,56 cm/s | <−7.56 ± 0.30 cm/s | 0.36 (≈ 0.363 µg/mL) | < 1 |  |  |  |  |  |  |  |  |
| Cc1ncsc1-c1ccc(CNC(=O)[C@@H]2C[C@@H](O)CN2C(=O)[C@@H](NC(=O)Cc2ccc(OCCOc3cnc4c(C5CCN(C(=O)c6ccc(OC(F)(F)F)cc6)CC5)ncnc4c3)cn2)C(C)(C)C)cc1 [PROTAC 6, 3-Methyl-N-[(5-{2-[(4-{1-[4-(trifluoromethoxy)benzoyl]piperidin-4-yl}pyrido[3,2-d]pyrimidin-7-yl)oxy]ethoxy}pyridin-2-yl)acetyl]-L-valyl-(4R)-4-hydroxy-N-[4-(4-methyl-1,3-thiazol-5-yl)benzyl]-L-prolinamide] |  | 3 | 2.97 | -7,28 cm/s | –7.28 ± 0.035 cm/s | 0.52 (≈ 0.525 µg/mL) | < 1 |  |  |  |  |  |  |  |  |
| Cc1ncsc1-c1ccc(CNC(=O)[C@@H]2C[C@@H](O)CN2C(=O)[C@@H](NC(=O)CN2CCC(CCCOc3cnc4c(C5CCN(C(=O)c6ccc(OC(F)(F)F)cc6)CC5)ncnc4c3)CC2)C(C)(C)C)cc1 [PROTAC 8, 3-Methyl-N-[(4-{3-[(4-{1-[4-(trifluoromethoxy)benzoyl]piperidin-4-yl}pyrido[3,2-d]pyrimidin-7-yl)oxy]propyl}piperidin-1-yl)acetyl]-L-valyl-(4R)-4-hydroxy-N-[4-(4-methyl-1,3-thiazol-5-yl)benzyl]-L-prolinamide] |  | 3.6 | 3.64 | -6,9 cm/s | –6.90 ± 0.061 cm/s |  |  |  |  |  |  |  |  |  |  |
| Cc1ncsc1-c1ccc(CNC(=O)[C@@H]2C[C@@H](O)CN2C(=O)[C@@H](NC(=O)COCCOCCNC(=O)COc2cnc3c(C4CCN(C(=O)c5ccc(OC(F)(F)F)cc5)CC4)ncnc3c2)C(C)(C)C)cc1 [PROTAC 9] |  | 2.7 | 2.68 | -6,3 cm/s | –6.30 ± 0.074 cm/s |  |  |  |  |  |  |  | high | 1.23 | 6.8 (≈ 7.03 µg/mL) |

The next lines start with results.

| Papp at 16 h, 10 μM (in vitro; PAMPA, pH 7.4) [×10⁻⁶ cm/s] | chromatographic logD [1, 4] | chromatographic logD [1, 5] | PAMPA, mean (LogPe, cm/s) (in vitro; 16 h, 10 μM) | PAMPA Log[Pe (cm/s)] (in vitro; 16 h, 10 μM, pH 7.4) | solubility (physchem) [µM] | solubility kinetic (physchem) [µM] | higher PAMPA permeability (in vitro) | improvement in PAMPA permeability (in vitro; 16 h, 10 μM) [fold] | uncharged fraction ([2]; at pH 7.4, from determined pKa) [%] | partially charged fraction ([2]; at physiological pH) [%] | pKa ([2]; tertiary amine of linker, photometry) | cell permeability class (in words) (VHL) | SMILES | IC50 (ERK5) [µM] | kinetic solubility [3] [µM] |
| --- | --- | --- | --- | --- | --- | --- | --- | --- | --- | --- | --- | --- | --- | --- | --- |
|  | 3.8 | 3.81 | -8,29 cm/s | –8.29 ± 0.023 cm/s | < 0.1 | < 1 |  |  |  |  |  |  | Cc1ncsc1-c1ccc(CNC(=O)[C@@H]2C[C@@H](O)CN2C(=O)[C@@H](NC(=O)CCCCCCCCOc2cnc3c(C4CCN(C(=O)c5ccc(OC(F)(F)F)cc5)CC4)ncnc3c2)C(C)(C)C)cc1 [PROTAC 1, 3-Methyl-N-{9-[(4-{1-[4-(trifluoromethoxy)benzoyl]piperidin-4-yl}pyrido[3,2-d]pyrimidin-7-yl)oxy]nonanoyl}-L-valyl-(4R)-4-hydroxy-N-[4-(4-methyl-1,3-thiazol-5-yl)benzyl]-L-prolinamide] |  |  |
|  | 2.9 | 2.89 | -5,42 cm/s | –5.42 ± 0.035 cm/s | 0.64 (≈ 0.634 µg/mL) | < 1 | ~3 orders of magnitude |  |  |  |  |  | Cc1ncsc1-c1ccc(CNC(=O)[C@@H]2C[C@@H](O)CN2C(=O)[C@@H](NC(=O)CCOCCOCCOc2cnc3c(C4CCN(C(=O)c5ccc(OC(F)(F)F)cc5)CC4)ncnc3c2)C(C)(C)C)cc1 [PROTAC 2, 3-Methyl-N-[3-(2-{2-[(4-{1-[4-(trifluoromethoxy)benzoyl]piperidin-4-yl}pyrido[3,2-d]pyrimidin-7-yl)oxy]ethoxy}ethoxy)propanoyl]-L-valyl-(4R)-4-hydroxy-N-[4-(4-methyl-1,3-thiazol-5-yl)benzyl]-L-prolinamide] |  |  |
|  | 2.7 | 2.66 | -6,21 cm/s | –6.21 ± 0.046 cm/s | 17 (≈ 17.1 µg/mL) | 10 to 20 (≈ 10 to 20.1 µg/mL) |  |  |  |  |  |  | Cc1ncsc1-c1ccc(CNC(=O)[C@@H]2C[C@@H](O)CN2C(=O)[C@@H](NC(=O)CCOCCNC(=O)COc2cnc3c(C4CCN(C(=O)c5ccc(OC(F)(F)F)cc5)CC4)ncnc3c2)C(C)(C)C)cc1 [PROTAC 3, 3-Methyl-N-[3-(2-{2-[(4-{1-[4-(trifluoromethoxy)benzoyl]piperidin-4-yl}pyrido[3,2-d]pyrimidin-7-yl)oxy]acetamido}ethoxy)propanoyl]-L-valyl-(4R)-4-hydroxy-N-[4-(4-methyl-1,3-thiazol-5-yl)benzyl]-L-prolinamide] |  |  |
|  | 3.7 | 3.74 | -6,67 cm/s | –6.67 ± 0.017 cm/s |  |  |  | 40 | 76 | < 25 | 6.9 |  | Cc1ncsc1-c1ccc(CNC(=O)[C@@H]2C[C@@H](O)CN2C(=O)[C@@H](NC(=O)CN(C)CCCCCCOc2cnc3c(C4CCN(C(=O)c5ccc(OC(F)(F)F)cc5)CC4)ncnc3c2)C(C)(C)C)cc1 [PROTAC 7, N-Methyl-N-{6-[(4-{1-[4-(trifluoromethoxy)benzoyl]piperidin-4-yl}pyrido[3,2-d]pyrimidin-7-yl)oxy]hexyl}glycyl-3-methyl-L-valyl-(4R)-4-hydroxy-N-[4-(4-methyl-1,3-thiazol-5-yl)benzyl]-L-prolinamide] |  |  |
